From ChEMBL document CHEMBL1151824, “Semisynthesis and biological activity of stemofoline alkaloids” (2009) come the findings set out here.

Test [1] concerns the target Acetylcholinesterase (Homo sapiens) (UniProt P22303). The test is described as follows: Inhibition of AChE assessed as white zone of inhibition after 20 mins by TLC bioautography.
The next test has as its system Pseudomonas aeruginosa. The test can be described thus: Antimicrobial activity against Pseudomonas aeruginosa ATCC 27853 after 24 hrs by broth dilution technique. The test is classed as functional. For orientation: Dilution methods test growth across graded concentrations, often in twofold steps.
A further test concerns Staphylococcus aureus. The test is described as follows: Antimicrobial activity against Staphylococcus aureus ATCC 25923 after 24 hrs by broth dilution technique. The class given is functional.
Another test relates to Candida albicans. The test can be described thus: Antimicrobial activity against Candida albicans ATCC 90028 after 24 hrs by broth dilution technique. The settings on record: ATCC 90028, 24 h. The class given is functional.
The mark [2] stands for this setting: Pseudomonas aeruginosa, ATCC 27853, 24 h, read-out: MIC.

Converted amounts (≈) assume the structure as drawn.

Acetylcholinesterase (Homo sapiens), sequence (P22303 whole entry): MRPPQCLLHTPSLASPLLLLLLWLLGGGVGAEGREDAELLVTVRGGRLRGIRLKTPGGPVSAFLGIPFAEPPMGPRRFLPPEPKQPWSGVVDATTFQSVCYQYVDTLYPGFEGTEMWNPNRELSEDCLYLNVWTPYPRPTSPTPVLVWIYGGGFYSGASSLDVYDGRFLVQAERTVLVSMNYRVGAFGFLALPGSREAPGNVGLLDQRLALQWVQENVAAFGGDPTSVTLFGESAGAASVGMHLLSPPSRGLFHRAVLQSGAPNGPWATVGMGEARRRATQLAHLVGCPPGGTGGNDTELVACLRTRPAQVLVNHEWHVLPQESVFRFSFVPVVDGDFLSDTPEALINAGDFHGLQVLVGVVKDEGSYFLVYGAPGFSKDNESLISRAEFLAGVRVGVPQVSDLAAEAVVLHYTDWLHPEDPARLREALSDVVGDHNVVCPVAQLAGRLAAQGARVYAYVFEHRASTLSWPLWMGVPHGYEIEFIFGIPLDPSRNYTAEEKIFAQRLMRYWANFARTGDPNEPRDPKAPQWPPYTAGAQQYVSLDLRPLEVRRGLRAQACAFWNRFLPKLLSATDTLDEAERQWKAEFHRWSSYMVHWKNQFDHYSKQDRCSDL

For `CC/C=C/C12C3CC4C5[C@@H](C)/C(=C6/OC(=O)C(C)=C6OC)O[C@]5(O3)C1CCN42` (stereo partly drawn), the MIC was 1.3 ×10⁻² nmol in test [1] and ≥ 125 µg/mL in the test with Pseudomonas aeruginosa (setting [2]).

In the case of `CNC(=O)Oc1ccc2c(c1)[C@]1(C)CCN(C)[C@@H]1N2C`, the MIC in test [1] was 3.6 ×10⁻⁴ nmol.

`COC1=C(C)C(=O)O/C1=C1\O[C@@]23O[C@H]4C[C@@H]([C@H]2[C@@H]1C)N1CC[C@H]3[C@@]41CC[C@@H](C)O` (mixture of isomers): the MIC was 2.5 ×10⁻¹ nmol in test [1]; ≥ 125 µg/mL against Staphylococcus aureus (ATCC 25923, 24 h); 62.5 µg/mL in the test on Pseudomonas aeruginosa (setting [2]); ≥ 125 µg/mL against Candida albicans.

Regarding `COC1=C(C)C(=O)O/C1=C1\O[C@@]23O[C@H]4C[C@@H]([C@H]2[C@@H]1C)N1CC[C@H]3[C@@]41CCC(C)O` (mixture of isomers), the MIC is 2.5 ×10⁻² nmol in test [1]; ≥ 125 µg/mL against Staphylococcus aureus (ATCC 25923, 24 h); ≥ 125 µg/mL in the test on Pseudomonas aeruginosa (setting [2]); ≥ 125 µg/mL with Candida albicans.

Take `COC1=C(C)C(=O)O/C1=C1\O[C@@]23O[C@H]4C[C@@H]([C@H]2[C@@H]1C)N1CC[C@H]3[C@@]41/C=C/C(C)O` (mixture of isomers; 1): the MIC in the test with Staphylococcus aureus (ATCC 25923, 24 h) was ≥ 125 µg/mL; in the test with Pseudomonas aeruginosa (setting [2]), 62.5 µg/mL; in the test with Candida albicans, ≥ 125 µg/mL.

As for `COC1=C(C)C(=O)O/C1=C1\O[C@@]23O[C@H]4C[C@@H]([C@H]2[C@@H]1C)N1CC[C@H]3[C@@]41/C=C/C(C)O` (mixture of isomers; 2) [listing 1 of 2 here], the MIC result in the test on Pseudomonas aeruginosa is “>=125 ug ml-1”.

Turning to `COC1=C(C)C(=O)O/C1=C1\O[C@@]23O[C@H]4C[C@@H]([C@H]2[C@@H]1C)N1CC[C@H]3[C@@]41/C=C/C(C)O` (mixture of isomers; 2) [listing 2 of 2 here], the MIC in test [1] is 2.5 ×10⁻¹ nmol.

On to `COC1=C(C)C(=O)O/C1=C1\O[C@@]23O[C@H]4C[C@@H]([C@H]2[C@@H]1C)N1CC[C@H]3[C@@]41C` (stereo in doubt; 3), for which the MIC in test [1] came to 2.9 ×10⁻¹ nmol.

For `COC1=C(C)C(=O)O/C1=C1\O[C@@]23O[C@H]4C[C@@H]([C@H]2[C@@H]1C)N1CC[C@H]3[C@@]41C` (stereo in doubt; 15) [METHYLSTEMOFOLINE], the MIC with Staphylococcus aureus (ATCC 25923, 24 h) was ≥ 125 µg/mL; in the test with Pseudomonas aeruginosa (setting [2]), ≥ 125 µg/mL; against Candida albicans it was ≥ 125 µg/mL.

`C[C@@H]1[C@H](O)[C@@H](C)/C=C/C=C/C=C/C=C/C=C/C=C/C=C/[C@H](O[C@@H]2O[C@H](C)[C@@H](O)[C@H](N)[C@@H]2O)C[C@@H]2O[C@](O)(C[C@@H](O)C[C@@H](O)[C@H](O)CC[C@@H](O)C[C@@H](O)CC(=O)O[C@H]1C)C[C@H](O)[C@H]2C(=O)O` [AMPHOTERICIN B]: the MIC in the test on Candida albicans was determined as 0.35 µg/mL (≈ 0.379 µM).

Consider GENTAMICIN, for which the MIC against Staphylococcus aureus and against Pseudomonas aeruginosa was 1.41 µg/mL throughout.
